Literature values as cited in patent US20040170677A1, “Method of drug loading in liposomes by gradient” (priority 2002, published 2004).

Conditions: patients receiving doses greater than 550 mg per square meter of body area

Q: For `COc1cccc2c1C(=O)c1c(O)c3c(c(O)c1C2=O)C[C@@](O)(C(=O)CO)C[C@@H]3O[C@H]1C[C@H](N)[C@H](O)[C@H](C)O1` [doxorubicin, Doxorubicin], which “irreversible cardiomyopathy leading to congestive heart failure, share of patients” value is on record?
A: Its value is 1-10%.
